Where “and” joins values, the source holds several entries; their conditions need not be identical. Identical values can stand only once.
What was measured:
Type in all cases: functional
[1] = Antifungal activity against Bipolaris oryzae was measured as mycelial growth at 0.1 mg/mL concentration
[2] = Antifungal activity against Bipolaris oryzae was measured as mycelial growth at 0.5 mg/mL concentration
Curvularia lunata [3] = test: Antifungal activity against Curvularia lunata was measured as mycelial growth at 0.1 mg/mL concentration
Curvularia lunata [4] = test: Antifungal activity against Curvularia lunata was measured as mycelial growth at 0.5 mg/mL concentration
Fusarium oxysporum [5] = test: Antifungal activity against Fusarium oxysporum was measured as mycelial growth at 0.1 mg/mL concentration
[6] = Antibacterial activity against Escherichia coli was measured as area of inhibition zone at 0.1 mg/mL concentration
Enterococcus faecalis [7] = test: Antibacterial activity against […] was measured as area of inhibition zone at 0.1 mg/mL concentration
Staphylococcus aureus [8] = test: Antibacterial activity against Staphylococcus aureus was measured as area of inhibition zone at 0.1 mg/mL concentration
Pseudomonas aeruginosa [9] = test: Antibacterial activity against Pseudomonas aeruginosa was measured as area of inhibition zone at 0.1 mg/mL concentration
Fusarium oxysporum [10] = test: Antifungal activity against Fusarium oxysporum was measured as mycelial growth at 0.5 mg/mL concentration
Thanatephorus cucumeris [11] = test: Antifungal activity against Rhizoctonia solani was measured as mycelial growth at 0.1 mg/mL concentration
Thanatephorus cucumeris [12] = test: Antifungal activity against Rhizoctonia solani was measured as mycelial growth at 0.5 mg/mL concentration
Alternaria alternata [13] = test: Antifungal activity against Alternaria alternata was measured as mycelial growth at 0.1 mg/mL concentration
Alternaria alternata [14] = test: Antifungal activity against Alternaria alternata was measured as mycelial growth at 0.5 mg/mL concentration
[15] = Antifungal activity against Bipolaris oryzae was determined at 0.1 mg/mL concentration
[16] = Antifungal activity against Bipolaris oryzae was determined at 0.5 mg/mL concentration
Curvularia lunata [17] = test: Antifungal activity against Curvularia lunata was determined at 0.1 mg/mL concentration
Curvularia lunata [18] = test: Antifungal activity against Curvularia lunata was determined at 0.5 mg/mL concentration
Fusarium oxysporum [19] = test: Antifungal activity against Fusarium oxysporum was determined at 0.1 mg/mL concentration
Fusarium oxysporum [20] = test: Antifungal activity against Fusarium oxysporum was determined at 0.5 mg/mL concentration
Thanatephorus cucumeris [21] = test: Antifungal activity against Rhizoctonia solani was determined at 0.1 mg/mL concentration
Thanatephorus cucumeris [22] = test: Antifungal activity against Rhizoctonia solani was determined at 0.5 mg/mL concentration
Escherichia coli [23] = test: Antibacterial activity against Escherichia coli was determined at 0.1 mg/mL concentration
Escherichia coli [24] = test: Antibacterial activity against Escherichia coli was determined at 0.5 mg/mL concentration
Pseudomonas aeruginosa [25] = test: Antibacterial activity against Pseudomonas aeruginosa was determined at 0.1 mg/mL concentration
Enterococcus faecalis [26] = test: Antibacterial activity against […] was determined at 0.1 mg/mL concentration
Enterococcus faecalis [27] = test: Antibacterial activity against […] was determined at 0.5 mg/mL concentration
Staphylococcus aureus [28] = test: Antibacterial activity against Staphylococcus aureus was determined at 0.1 mg/mL concentration
Staphylococcus aureus [29] = test: Antibacterial activity against Staphylococcus aureus was determined at 0.5 mg/mL concentration
Pseudomonas aeruginosa [30] = test: Antibacterial activity against Pseudomonas aeruginosa was determined at 0.5 mg/mL concentration
Alternaria alternata [31] = test: Antifungal activity against Alternaria alternata was determined at 0.1 mg/mL concentration
Alternaria alternata [32] = test: Antifungal activity against Alternaria alternata was determined at 0.5 mg/mL concentration

CCOC(=O)c1cn(-c2ccc([N+](=O)[O-])cc2[N+](=O)[O-])nc1-c1ccccc1
Mycelial growth [1]: 5.6 cm
Mycelial growth [2]: 4.4 cm
Mycelial growth (Curvularia lunata [3]): 5.6 cm
Mycelial growth (Curvularia lunata [4]): 3.8 cm
Mycelial growth (Fusarium oxysporum [5]): 5.3 cm
Inhibition Zone [6]: 4.3 cm and 7.2 cm
zone of inhibition at 100 µg/mL ([6]; Escherichia coli): 39 mm
zone of inhibition at 100 µg/mL (Enterococcus faecalis [7]): 74 mm
Inhibition Zone (Staphylococcus aureus [8]): 7.6 cm and 3.6 cm
Inhibition Zone (Pseudomonas aeruginosa [9]): 2.2 cm
zone of inhibition at 100 µg/mL (Pseudomonas aeruginosa [9]; Pseudomonas aeruginosa): 18 mm
Mycelial growth (Fusarium oxysporum [10]): 3 cm
Mycelial growth (Thanatephorus cucumeris [11]): 8 cm
Mycelial growth (Thanatephorus cucumeris [12]): 6.6 cm
Mycelial growth (Alternaria alternata [13]): 5.5 cm
Mycelial growth (Alternaria alternata [14]): 3.8 cm
inhibition at 100 µg/mL [15]: 37.8%
inhibition at 500 µg/mL [16]: 51.1%
inhibition at 100 µg/mL (Curvularia lunata [17]): 37.8%
inhibition at 500 µg/mL (Curvularia lunata [18]): 57.8%
inhibition at 100 µg/mL (Fusarium oxysporum [19]): 41.1%
inhibition at 500 µg/mL (Fusarium oxysporum [20]): 66.7%
inhibition at 100 µg/mL (Thanatephorus cucumeris [21]): 11.1%
inhibition at 500 µg/mL (Thanatephorus cucumeris [22]): 26.6%
inhibition at 100 µg/mL (Escherichia coli [23]): 43.3%
inhibition at 500 µg/mL (Escherichia coli [24]): 80%
inhibition at 100 µg/mL (Pseudomonas aeruginosa [25]): 20%
inhibition at 100 µg/mL (Enterococcus faecalis [26]): 47.8%
inhibition at 500 µg/mL (Enterococcus faecalis [27]): 82.2%
inhibition at 100 µg/mL (Staphylococcus aureus [28]): 40%
inhibition at 500 µg/mL (Staphylococcus aureus [29]): 84.4%
inhibition at 500 µg/mL (Pseudomonas aeruginosa [30]): 24.4%
inhibition at 100 µg/mL (Alternaria alternata [31]): 38.9%
inhibition at 500 µg/mL (Alternaria alternata [32]): 57.8%
